Values of other authors as cited in US12702587B2, “Ophthalmic device” (aVISI Ltd., priority 2020, dated 2026).
Where a name gives a salt, the structure may show the parent alone.

Details: from chitosan nanoparticles; phosphate buffer saline of pH 7.4; in vitro

Compound: CC(C)(C)NC[C@H](O)COc1nsnc1N1CCOCC1 [timolol maleate]
- release of timolol maleate (duration of slow release): up to 24 hours
